Measured values reported in paper PMC6261997, “Synergistic enzymatic and bioorthogonal reactions for selective prodrug activation in living systems” (Nature Communications, 2018).
Blank lines part the entries; values can stand above or below the compound they belong to.

Columns and labels:
HeLa cells = assay: Intracellular Tz accumulation by fluorescence liberation from TCO-CMR, HeLa cells; format: cell-based; conditions: 50 or 500 μM Tz-COOH for 6 h, then 50 μM TCO-CMR 1-24 h
Procedure: Next, we tested the intracellular accumulation of Tz via EISA in an attempt to differentiate cancer cells from normal cells. First, we investigated the accumulation of Tz in HeLa cells and HUVECs over time via fluorescence liberation from TCO-CMR (Fig. 3a). […] The cells were then washed with PBS thoroughly before the addition of an excessive amount of TCO-CMR (100 μL, 50 μM), and the reaction of TCO-CMR with the intracellular accumulated Tz was allowed to proceed for up to 24 h (Supplementary Fig. 8). In this experimental setting, the total liberated fluorescence was proportional to the amount of 3 accumulated inside the cells. […] Therefore, the optimized concentration of 2 (e.g. 500 μM) and incubation time (e.g. 6 h) were selected to differentiate between cancer and normal cells according to liberated fluorescence intensity (Fig. 3c). This differentiation was dependent on the considerably different phosphatase activity between these cell lines (Supplementary Fig. 11), allowing EISA to specifically occur in cancer cells as opposed to normal cells.
All cells were purchased from the National Infrastructure of Cell Line Resource (Beijing, China). HeLa cells, HUVECs and CCC-HEH-2 cells were cultured in a humidified CO2 (5%) incubator at 37 °C in DMEM supplemented with 10% foetal bovine serum (FBS, Gibco) and 1% Pen Strep (PS, Gibco). Saos-2 cells were cultured in a humidified CO2 (5%) incubator at 37 °C in McCoy’s 5A medium supplemented with 10% FBS and 1% PS. Cells were plated in flat-bottom 96-well plates (Corning) at a density of 10^4 cells per well and allowed to attach for 12 h. Then, the culture medium was replaced with 100 μL of pre-warmed medium containing 2 at different concentrations (100–500 μM). After incubation for different durations (1–24 h), the cells were rinsed with PBS, and then 100 μL of 50 μM TCO-CMR (dissolved in PBS) was added for real-time detection of the fluorescence intensity of coumarin in a plate reader (Perkin Elmer).

[1] = Self-assembly and hydrogelation on addition of alkaline phosphatase (ALP); format: physicochemical; conditions: after addition of 10 U mL^−1 ALP (dephosphorylated product)
Procedure: The synthesis of the assembly precursor (NapK(Tz)YpF, 2, Fig. 2a) was straightforward (see Supplementary Methods for a detailed protocol). Because KYF was determined to be an excellent self-assembly motif in a tri-peptide census survey, we constructed our assembling molecules based on this sequence. The conjugation of a strong π–π stacking moiety, namely, a naphthalene group, to the N terminus may further enhance the self-assembly potential of this molecule. Phosphorylation on tyrosine (Y) enabled the responsiveness of this motif to phosphatase. All of these components were sequentially conjugated via typical Fmoc-based solid-phase peptide synthesis (SPPS) to yield NapKYpF (1). The capability of self-assembly and hydrogelation of 1 was confirmed by the addition of 10 U mL^−1 alkaline phosphatase (ALP) into a solution of 1 (Supplementary Fig. 1). The dephosphorylated product of 1 formed transparent hydrogels with a network of uniform nanofibres (Supplementary Fig. 2), and the critical hydrogelation concentration was 1.0 mg mL^−1. The ε-amine of Lys on 1 was conjugated with the Tz derivative Tz-COOH (2-(4-(6-methyl-1,2,4,5-tetrazin-3-yl)phenyl) acetic acid) via an NHS-mediated ester–amide exchange reaction to yield 2. […] Upon the addition of ALP (10 U mL^−1) into the solution of 2, a transparent purple hydrogel was formed within 1 h (Fig. 2b inset), and the critical hydrogelation concentration was 1.0 mg mL^−1 (Supplementary Fig. 3). Similar to the formation of a typical hydrogel, investigation by transmission electron microscopy (TEM) confirmed the existence of numerous uniform nanofibres, each with a diameter of approximately 12 nm, which was close to that of hydrogel 1 (Fig. 2b).

[2] = UPLC-MS/MS pharmacokinetic analyses in tumour, liver and plasma; format: in vivo, BALB/c nude mice; conditions: within 1 h after i.v. 50 mg kg^−1 2
Procedure: For in vivo prodrug activation, mice received an i.v. injection of 50 mg kg^−1 2 and a subsequent 30 mg kg^−1 TCO-Dox after a 2-h interval. After different time intervals, blood samples were collected from the tail veins, and then, the tumours and livers were harvested for UPLC-MS/MS analysis.
UPLC-MS/MS analyses: UPLC-MS/MS metabolomic analyses were performed using a
multiple reaction-monitoring mode (MRM). Data acquisition and processing were performed using LabSolutions version 5 software. Measurements were carried out at
Dox, solvent A consisted of 0.1% formic acid in water and solvent B consisted of 0.1% formic acid in mass spectrometric grade acetonitrile; (2) for compound TCO-Dox, solvent A consisted of 100% water and solvent B consisted of 100% mass spectrometric grade acetonitrile. Injection volume was 2 or 10 L. The mass spectrometer was interfaced with the liquid chromatograph using an electrospray ion source. The nitrogen nebulizing gas flow was set at 10 L min-1 and the drying gas flow at 15 mL min-1. 4500 V were used for the interface voltage. The temperature of the block heater was maintained at 400 °C and the one of the desolvation line at 250 °C. The MRM transitions were
Dox. The collision gas used was argon at 230 kPa. The dwell time was set to 100 msec and the pause time to 3 msec.
Sample preparation: blood samples were collected from the tail vein of mice. Plasma […]

Structure (SMILES): Cc1nnc(-c2ccc(CC(=O)O)cc2)nn1 [Tz-COOH, 2-(4-(6-methyl-1,2,4,5-tetrazin-3-yl)phenyl) acetic acid, reference compound]
accumulation in HeLa cells (HeLa cells): hardly accumulated

Structure (SMILES): NCCCCC(NC(=O)Cc1ccc2ccccc2c1)C(=O)NC(Cc1ccc(OP(=O)(O)O)cc1)C(=O)NC(Cc1ccccc1)C(=O)O (stereo not drawn) [compound 1, NapKYpF]
critical hydrogelation concentration [1]: 1.0 mg/mL

concentration in tumours [2]: increased significantly within 1 h
Structure (SMILES): Cc1nnc(-c2ccc(CC(=O)NCCCCC(NC(=O)Cc3ccc4ccccc4c3)C(=O)NC(Cc3ccc(O)cc3)C(=O)NC(Cc3ccccc3)C(=O)O)cc2)nn1 (stereo not drawn) [compound 3, NapK(Tz)YF]
